The text below walks through data of patent US20260274859A1, “FUSED POLYCYCLIC DERIVATIVE AND USE THEREOF” (ZHEJIANG HISUN PHARMACEUTICAL CO., LTD., priority 2023, published 2026).

Holding throughout (type): cell-based
One assay concerns HK-2 cells. Put plainly: Inhibition of proliferation of HK-2 cells (normal cells; CCK8 or CTG). The following applies: Homo sapiens, maximum concentration 10 μM, 5-fold dilution. The method, then:
(1) HK-2 cells in the logarithmic growth phase were digested with 0.25% trypsin and counted. The cells were inoculated into 96-well plates at 2000 cells per well, and the 96-well plates were placed and cultured in an incubator containing 5% CO2 at 37° C. for 12 h.
(2) Six concentration gradients for the compound to be tested (with the maximum drug concentration of 10 μM and 5-fold dilution) were set. After the cells adhered to the wall, the compounds to be tested were serially diluted with DMSO, then diluted with 1640 complete medium to reach a concentration 1000 times the final concentration, and added to the corresponding wells.
(§1) (3) After the corresponding concentrations of the compounds to be tested were added, the plates were incubated in an incubator with 5% carbon dioxide at 37° C., and then the cell viability rate at each drug concentration was determined by CCK8 or CTG method. In addition, the IC50 value was calculated.

The test system of a further assay is HL60 cells. Description: Inhibition of proliferation of HL60 tumor cells (CCK8 or CTG). The following applies: Homo sapiens, HL-60. On the procedure: The effect of the compound of the present disclosure on the proliferation of tumor cells was determined using the following method. The HL60 cells used in the method were purchased from Nanjing Kebai Biotechnology Co., Ltd., and the kit was the Cell Counting Kit-8/CCK-8 kit of MCE Company (article number: HY—K0301, specification: 3000T).
(1) HL60 cells in logarithmic growth phase were prepared into a cell suspension. The cell suspension was added into a 96-well plate at 5000 cells/well. The 96-well cell culture plate was placed in a CO2 incubator for 4 h of incubation of suspended cells or for 12 h of incubation of adherent cells.
(2) The compounds to be tested were diluted with IMDM complete culture medium to reach a concentration twice the testing concentration, and added to the corresponding wells.
as §1

The subject of a further assay is A549 cells. Description: Inhibition of proliferation of A549 cells (CCK8 or CTG). The settings on record: Homo sapiens, maximum concentration 10 μM, 5-fold dilution. The method, then:
(1) A549 cells in the logarithmic growth phase were digested with 0.25% trypsin and counted. The cells were inoculated into 96-well plates at 2000 cells per well, and the 96-well plates were placed in an incubator containing 5% CO2 at 37° C. for 12 h of culture.
(2) Six concentration gradients for the compounds to be tested (with the maximum drug concentration of 10 μM and 5-fold dilution) were set. After the cells adhered to the wall, the compounds to be tested were serially diluted with DMSO, then diluted with 1640 complete medium to reach a concentration 1000 times the final concentration, and added to the corresponding wells.
as §1

What is called IC50 is the midpoint of a concentration-inhibition curve. Higher therefore signals weaker potency. Regarding `CC(C)NC1CC(C(=O)Nc2sc3c(c2-c2nc4ccc(C5=CCNCC5)cc4s2)CCNC3)C1` (stereo not drawn) [Compound 048, 3-(isopropylamino)-N-(3-(6-(1,2,3,6-tetrahydropyridin-4-yl)benzo[d]thiazol-2-yl)-4,5,6,7-tetrahydrothieno[2,3-c]pyridin-2-yl)cyclobutane-1-formylamino], the concentration for half-maximal inhibition (IC50) in the assay on HK-2 cells is 1160 nM; with HL60 cells, below 150 nM; in the assay with A549 cells it was 3.35 nM.
`COCCNCCC(=O)Nc1sc2c(c1-c1nc3cc(-n4cnc(C)c4)ccc3s1)CCNC2` [Compound a, reference compound]: the IC50 in the assay with HK-2 cells was 520 nM; with HL60 cells, 150 to 1500 nM; with A549 cells it was 74 nM.
In the case of `CC(C)NC1CC(C(=O)Nc2sc3c(c2-c2nc4ccc(-c5ccc(C6=CCNCC6)nc5)cc4s2)CCNC3)C1` (stereo not drawn) [Compound 047, 3-(isopropylamino)-N-(3-(6-(1′,2′,3′,6′-tetrahydro-[2, 4′-bipyridin]-5-yl)benzo [d]thiazol-2-yl)-4,5,6,7-tetrahydrothieno[2,3-c]pyridin-2-yl)cyclobutane-1-carboxamide], the figures for the half-inhibitory concentration (IC50) with HK-2 cells, with HL60 cells and with A549 cells were 1610 nM, below 150 nM and 18.3 nM, respectively.
